# Columns and labels:
# [1] = tested on: uterine horns; assay: Examination of the uterine horns; assay type: in vivo, rat; conditions: OVX rats, 10 μg s.c., next day
# [2] = 10 μg EB s.c., for up to 30 h in ovariectomized rats; cited from earlier work
# [3] = tested on: luteinizing hormone (LH); assay: Plasma r-LH in trunk blood by radioimmunoassay; assay type: in vivo, rat; conditions: presumptive proestrus, OVX rats, 10 μg s.c., mean±sem, n=7
structure (smiles),measurement,setting,value
"C[C@]12CC[C@@H]3c4ccc(OC(=O)c5ccccc5)cc4CC[C@H]3[C@@H]1CC[C@@H]2O [EB, estradiol benzoate]",uterine horns,[1],markedly distended with fluid
same,blood levels of E2,[2],100-120 pg E2/ml
same,Plasma r-LH levels,[3],7.5 ± 3.1 ng/mL
